What was measured:
Test in all cases: relative viability (nuclei count vs DMSO), 5 days (fraction); higher = more cells survive
ABC-1 = tested on: ABC-1
Summary of the method: (§1)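 One day after seeding in 1536-well plates, lung cancer cell lines were dosed by pin tool. Dosing was either single-drug or a fixed anchor-drug dose plus five library-drug doses (not always all listed) in √10 steps. After 5 days, nuclei were stained in one fix-and-stain step and counted on 4× images, and relative viability is the nuclei count of treated wells over that of vehicle wells, given as the median of duplicate plates.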

BEN = tested on: BEN
Summary of the method: as §1

CAL-12T = tested on: CAL-12T
Summary of the method: as §1

EKVX = tested on: EKVX
Summary of the method: as §1

EMC-BAC-2 = tested on: EMC-BAC-2
Summary of the method: as §1

EPLC-272H = tested on: EPLC-272H
Summary of the method: as §1

HCC-78 = tested on: HCC-78
Summary of the method: as §1

HCC-827 = tested on: HCC-827
Summary of the method: as §1

LCLC-97TM1 = tested on: LCLC-97TM1
Summary of the method: as §1

LK-2 = tested on: LK-2
Summary of the method: as §1

LOU-NH91 = tested on: LOU-NH91
Summary of the method: as §1

NCI-H1395 = tested on: NCI-H1395
Summary of the method: as §1

NCI-H1437 = tested on: NCI-H1437
Summary of the method: as §1

NCI-H1650 = tested on: NCI-H1650
Summary of the method: as §1

NCI-H1755 = tested on: NCI-H1755
Summary of the method: as §1

NCI-H2009 = tested on: NCI-H2009
Summary of the method: as §1

NCI-H2023 = tested on: NCI-H2023
Summary of the method: as §1

NCI-H2170 = tested on: NCI-H2170
Summary of the method: as §1

NCI-H522 = tested on: NCI-H522
Summary of the method: as §1

NCI-H596 = tested on: NCI-H596
Summary of the method: as §1

NCI-H727 = tested on: NCI-H727
Summary of the method: as §1

PC-14 = tested on: PC-14
Summary of the method: as §1

SK-LU-1 = tested on: SK-LU-1
Summary of the method: as §1

SW 900 = tested on: SW 900
Summary of the method: as §1

UMC-11 = tested on: UMC-11
Summary of the method: as §1

For `Nc1cccc2c1CN(C1CCC(=O)NC1=O)C2=O` (stereo unspecified) [Lenalidomide] + Cc1cc(Nc2cc(N3CCN(C)CC3)nc(Sc3ccc(NC(=O)C4CC4)cc3)n2)n[nH]1 [Tozasertib] (partner 0.1 µM), the relative viability (ABC-1; first compound 0.253 µM) was 0.199, the relative viability (ABC-1; first compound 0.8 µM) was 0.17 and the relative viability (ABC-1; first compound 2.53 µM) was 0.184. For the same molecule, the relative viability (ABC-1; first compound 8 µM) was 0.175, the relative viability (BEN; first compound 0.253 µM) was 0.594 and the relative viability (BEN; first compound 0.8 µM) was 0.462. For the same molecule, the relative viability (BEN; first compound 2.53 µM) was 0.441, the relative viability (BEN; first compound 8 µM) was 0.57 and the relative viability (CAL-12T; first compound 0.253 µM) was 0.3. The relative viability (CAL-12T; first compound 0.8 µM) was 0.302, the relative viability (CAL-12T; first compound 2.53 µM) was 0.463 and the relative viability (CAL-12T; first compound 8 µM) was 0.352. For the same molecule, the relative viability (EKVX; first compound 0.253 µM) was 0.396, the relative viability (EKVX; first compound 0.8 µM) was 0.41 and the relative viability (EKVX; first compound 2.53 µM) was 0.415. The relative viability (EKVX; first compound 8 µM) was 0.372, the relative viability (EMC-BAC-2; first compound 0.253 µM) was 0.287 and the relative viability (EMC-BAC-2; first compound 0.8 µM) was 0.272. The relative viability (EMC-BAC-2; first compound 2.53 µM) was 0.298, the relative viability (EMC-BAC-2; first compound 8 µM) was 0.333 and the relative viability (EPLC-272H; first compound 0.253 µM) was 0.343. The relative viability (EPLC-272H; first compound 0.8 µM) was 0.229, the relative viability (EPLC-272H; first compound 2.53 µM) was 0.349 and the relative viability (EPLC-272H; first compound 8 µM) was 0.256. It also gave a relative viability (HCC-78; first compound 0.253 µM) of 0.537, a relative viability (HCC-78; first compound 0.8 µM) of 0.44 and a relative viability (HCC-78; first compound 2.53 µM) of 0.443. The relative viability (HCC-78; first compound 8 µM) was 0.49, the relative viability (HCC-827; first compound 0.253 µM) was 0.47 and the relative viability (HCC-827; first compound 0.8 µM) was 0.41. It also gave a relative viability (HCC-827; first compound 2.53 µM) of 0.455, a relative viability (HCC-827; first compound 8 µM) of 0.462 and a relative viability (LCLC-97TM1; first compound 0.253 µM) of 0.227. The relative viability (LCLC-97TM1; first compound 0.8 µM) was 0.277, the relative viability (LCLC-97TM1; first compound 2.53 µM) was 0.256 and the relative viability (LCLC-97TM1; first compound 8 µM) was 0.232. The relative viability (LK-2; first compound 0.253 µM) was 0.175, the relative viability (LK-2; first compound 0.8 µM) was 0.197 and the relative viability (LK-2; first compound 2.53 µM) was 0.164. For the same molecule, the relative viability (LK-2; first compound 8 µM) was 0.135, the relative viability (LOU-NH91; first compound 0.253 µM) was 0.715 and the relative viability (LOU-NH91; first compound 0.8 µM) was 0.737. For the same molecule, the relative viability (LOU-NH91; first compound 2.53 µM) was 0.715, the relative viability (LOU-NH91; first compound 8 µM) was 0.73 and the relative viability (NCI-H1395; first compound 0.253 µM) was 0.692. It also gave a relative viability (NCI-H1395; first compound 0.8 µM) of 0.753, a relative viability (NCI-H1395; first compound 2.53 µM) of 0.818 and a relative viability (NCI-H1395; first compound 8 µM) of 0.678. For the same molecule, the relative viability (NCI-H1437; first compound 0.253 µM) was 0.432, the relative viability (NCI-H1437; first compound 0.8 µM) was 0.443 and the relative viability (NCI-H1437; first compound 2.53 µM) was 0.441. For the same molecule, the relative viability (NCI-H1437; first compound 8 µM) was 0.47, the relative viability (NCI-H1650; first compound 0.8 µM) was 0.58 and the relative viability (NCI-H1650; first compound 2.53 µM) was 0.563. For the same molecule, the relative viability (NCI-H1650; first compound 8 µM) was 0.592, the relative viability (NCI-H1755; first compound 0.253 µM) was 0.638 and the relative viability (NCI-H1755; first compound 0.8 µM) was 0.614. The relative viability (NCI-H1755; first compound 2.53 µM) was 0.597, the relative viability (NCI-H1755; first compound 8 µM) was 0.541 and the relative viability (NCI-H2009; first compound 0.253 µM) was 0.776. It also gave a relative viability (NCI-H2009; first compound 0.8 µM) of 0.761, a relative viability (NCI-H2009; first compound 2.53 µM) of 0.836 and a relative viability (NCI-H2009; first compound 8 µM) of 0.847. For the same molecule, the relative viability (NCI-H2023; first compound 0.253 µM) was 0.445, the relative viability (NCI-H2023; first compound 0.8 µM) was 0.403 and the relative viability (NCI-H2023; first compound 2.53 µM) was 0.386. The relative viability (NCI-H2023; first compound 8 µM) was 0.519, the relative viability (NCI-H2170; first compound 0.253 µM) was 0.612 and the relative viability (NCI-H2170; first compound 0.8 µM) was 0.608. It also gave a relative viability (NCI-H2170; first compound 2.53 µM) of 0.747, a relative viability (NCI-H2170; first compound 8 µM) of 0.753 and a relative viability (NCI-H522; first compound 0.253 µM) of 0.574. It also gave a relative viability (NCI-H522; first compound 2.53 µM) of 0.52, a relative viability (NCI-H522; first compound 8 µM) of 0.511 and a relative viability (NCI-H596; first compound 0.253 µM) of 0.755. For the same molecule, the relative viability (NCI-H596; first compound 2.53 µM) was 0.904, the relative viability (NCI-H596; first compound 8 µM) was 0.774 and the relative viability (NCI-H727; first compound 0.253 µM) was 0.615. The relative viability (NCI-H727; first compound 0.8 µM) was 0.585, the relative viability (NCI-H727; first compound 2.53 µM) was 0.56 and the relative viability (NCI-H727; first compound 8 µM) was 0.756. It also gave a relative viability (PC-14; first compound 0.253 µM) of 0.629, a relative viability (PC-14; first compound 0.8 µM) of 0.696 and a relative viability (PC-14; first compound 2.53 µM) of 0.706. It also gave a relative viability (PC-14; first compound 8 µM) of 0.738, a relative viability (SK-LU-1; first compound 0.253 µM) of 0.376 and a relative viability (SK-LU-1; first compound 0.8 µM) of 0.304. For the same molecule, the relative viability (SK-LU-1; first compound 2.53 µM) was 0.399, the relative viability (SK-LU-1; first compound 8 µM) was 0.392 and the relative viability (SW 900; first compound 0.253 µM) was 0.544. It also gave a relative viability (SW 900; first compound 2.53 µM) of 0.635, a relative viability (SW 900; first compound 8 µM) of 0.616 and a relative viability (UMC-11; first compound 0.253 µM) of 0.192. For the same molecule, the relative viability (UMC-11; first compound 0.8 µM) was 0.21, the relative viability (UMC-11; first compound 2.53 µM) was 0.192 and the relative viability (UMC-11; first compound 8 µM) was 0.195.

Source: the supplement of paper PMC10307832
